Laboratory results taken from US8022103B2, “Ester prodrugs of prostratin and related phorbol compounds” (Salvia Sciences, Inc., priority 2005, dated 2011).
≈ marks a conversion by molar mass, not a printed value. Where two headings read alike, the source gives them in different places.

Columns and labels:
[1] = system: HIV-1Ba-L; experiment: Anti-HIV efficacy in human monocyte/macrophages (p24 ELISA); type: cell-based
Description: SA-101A and SA-101B were tested for antiviral activity against HIV-1 virus in peripheral blood monocytes/macrophages. Monocytes/macrophages were derived from normal HIV-1 negative donors, and cultured under conditions which promote cell survival and HIV replication. Fresh human blood was obtained commercially from Biological Specialty Corporation (Colmar, Pa.). The low passage, monocytropic, clinical isolate HIV-1Ba-L (Subtype B, R5) was obtained from the NIAID AIDS Research and Reference Reagent Program. A pre-titered aliquot of HIV 1Ba-L was removed from the freezer (−80° C.) and thawed rapidly to room temperature in a biological safety cabinet immediately before use. Phytohemagglutinin (PHA-P) was obtained from Sigma (St. Louis, Mo.) and recombinant IL-2 was obtained from R&D Systems Inc. (Minneapolis, Minn.).
Compound preparation: Compounds SA-101A and SA-101B were in powder form and solubilized in DMSO prior to use. AZT (Sigma), solubilized in sterile dH2O, was used as the positive antiviral control. The compounds were tested at a 100 μg/mL high-test concentration; AZT was tested at a 1,000 ηM high-test concentration. Compound SA-101B was tested in the presence of 40% human AB serum.
Monocyte isolation and culture. Peripheral blood monocytes were isolated from screened donors sero-negative for HIV and HBV. Cells were pelleted by low speed centrifugation and re-suspended in PBS to remove contaminating platelets. The leukophoresed blood was then diluted with Dulbecco's phosphate buffered saline (PBS) and layered over of Lymphocyte Separation Medium (LSM; Cellgro® by Mediatech, Inc.; density 1.078+/−0.002 g/ml; Cat. # 85-072-CL) in a 50 mL centrifuge tube and then centrifuged. Banded PBMCs were gently aspirated from the interface and subsequently washed with PBS by low speed centrifugation. The cells were diluted to 4×10^6 cells per mL in DMEM without phenol red supplemented with 10% heat inactivated human pooled AB serum, 2 mM L-glutamine, 100 U/mL penicillin and 100 μg/mL streptomycin. Monocytes/macrophages were allowed to adhere to the interior 60 wells (100 μL/well) of a 96 well flat bottomed plate for 2 to 18 hours at 37° C., 5% CO2. The exterior wells were filled with 200 μL of sterile DPBS to serve as a humidity barrier. Following adherence of cells, the cultures were washed with sterile DPBS to remove non-adherent cells (lymphocytes and contaminating RBCs). […]
Anti-HIV efficacy evaluation in human monocyte/macrophages. […] At assay termination, virus replication was measured by collecting cell-free supernatant samples, which were analyzed for HIV p24 antigen content using a commercially available p24 ELISA assay (Coulter). […]

[2] = system: HepG2-2.2.15 cells; experiment: Dye uptake cell viability in HepG2-2.2.15 cells; type: cell-based; conditions: at the concentrations evaluated
Description: HepG2 2.2.15 Antiviral Assay. The assay developed is similar to that described ion the literature (Korba et al., 1991, Antiviral Res. 15: 217-228; Korba et al., 1992, Antiviral Res. 19: 55-70) with the exception that viral DNA detection and quantification have been improved and simplified (Buckwold et al., 2004, Antiviral Res. 61(1): 57-62). Briefly, HepG2-2.2.15 cells are plated in 96-well microtiter plates. Only the interior wells are utilized to reduce “edge effects” observed during cell culture; the exterior wells are filled with complete medium to help minimize sample evaporation. After 16-24 hours the confluent monolayer of HepG2-2.2.15 cells is washed and the medium is replaced with complete medium containing various concentrations of a test compound in triplicate. […] Six days following the initial administration of the test compound, the cell culture supernatant is collected, treated with pronase and DNAse and then used in a real-time quantitative TaqMan PCR assay. The PCR-amplified HBV DNA is detected in real-time by monitoring increases in fluorescence signals that result from the exonucleolytic degradation of a quenched fluorescent probe molecule that hybridizes to the amplified HBV DNA. […] Antiviral activity is calculated from the reduction in HBV DNA levels (IC50). […] The therapeutic index (TI) is calculated as TC50/IC50.

Row | SMILES | IC50 ([1]; 40% Human AB serum) [mg/L] | IC90 ([1]; 40% Human AB serum) [mg/L] | Cytotoxicity [2] | IC50 ([1]; Human immunodeficiency virus 1, Macrophage, read-out: IC50) [mg/L] | IC90 ([1]; Human immunodeficiency virus 1, Macrophage, read-out: IC90) [mg/L]
1 | CC(=O)OC12CC(C)C3(O)C(C=C(COC(=O)CCC(=O)O)CC4(O)C(=O)C(C)=CC43)C1C2(C)C (stereo not drawn) [SA-101B, Prostratin Succinate] | 0.28 | 7.29 | no cytotoxicity | – | –
2 | CC(=O)O[C@@]12C[C@@H](C)[C@@]3(O)[C@@H](C=C(CO)C[C@]4(O)C(=O)C(C)=C[C@@H]34)[C@@H]1C2(C)C [SA-101A, 12-deoxyphorbol 13-acetate] | – | – | no cytotoxicity | 0.11 (≈ 0.282 µM) | 0.28 (≈ 0.717 µM)
